{
  "source": "patent US20150290226A1",
  "about": "“NOVEL LYOPHILIZED COMPOSITIONS OF CYCLOPHOSPHAMIDE” (LEIUTIS PHARMACEUTICALS PVT. LTD., priority 2012, published 2015)",
  "key": {"[1]": {"test": "Water activity of drug substance and lyophilizate", "assay_type": "physicochemical", "conditions": "Sample numbers I, II, III, listed as Drug substance (Monohydrate Form)", "source_text": "(§1) The moisture content and water activity of the drug substance as well as the lyophilizate was checked to ensure the retention of the crystalline monohydrate form of the drug substance in the Lyophilizate. Water activity instruments measure the amount of free (sometimes referred to as unbound or active) water present in the sample and KF titration measures the total water in a sample."}, "[2]": {"test": "Moisture content (KF titration) of drug substance and lyophilizate", "assay_type": "physicochemical", "conditions": "Sample numbers I, II, III, listed as Drug substance (Monohydrate Form)", "source_text": "as §1"}, "[3]": {"procedure": "The solubility of Cyclophosphamide monohydrate in various solvents was checked. The quantity of solvent consumed for dissolving 100 mg of Cyclophosphamide monohydrate is given below: […]"}, "[4]": {"source_text": "The change of description of Cyclophosphamide monohydrate at various temperatures was studied by exposing the drug to different temperatures under constant vacuum and details are given in Tables 6 & 7: […]", "remark": "listed apart in the source"}, "[5]": {"conditions": "Vacuum 1000 mtorr, +25° C. (5 hrs)"}, "[6]": {"conditions": "Vacuum 1000 mtorr, −2° C. (12 hrs)"}, "[7]": {"conditions": "Vacuum 1000 mtorr, −15° C. (19 hrs)"}, "[8]": {"conditions": "Vacuum 1000 mtorr, −25° C. (12 hrs)"}, "[9]": {"conditions": "Vacuum 1000 mtorr, −40° C. (5 hrs)"}},
  "note": "Values joined by “and” are separate entries in the source; they are usually repeats but may differ in a detail not shown here. Equal values may be shown once. Read-outs that look alike come from different tables or passages of the source.",
  "data": [
    {"smiles": "Cl.[O-][P+]1(N(CCCl)CCCl)NCCCO1", "note": "(stereo not drawn) [Cyclophosphamide monohydrate, 2-[bis(2-chloroethyl)amino]tetrahydro-2H-1,3,2-oxazaphosphorine 2-oxide monohydrate]", "values": [
      {"measurement": "Water Activity (aw)", "setting": "[1]", "result": "0.374 and 0.372 and 0.373"},
      {"measurement": "Moisture Content (%)", "setting": "[2]", "result": "6.64% and 6.75% and 6.72%"},
      {"measurement": "quantity of solvent consumed for dissolving 100 mg", "setting": "[3]; Acetone", "result": 0.4, "unit": "mL"},
      {"measurement": "quantity of solvent consumed for dissolving 100 mg", "setting": "[3]; Acetonitrile", "result": 0.5, "unit": "mL"},
      {"measurement": "quantity of solvent consumed for dissolving 100 mg", "setting": "[3]; Dimethyacetamide", "result": 2.0, "unit": "mL"},
      {"measurement": "quantity of solvent consumed for dissolving 100 mg", "setting": "[3]; Ethanol", "result": 0.5, "unit": "mL"},
      {"measurement": "quantity of solvent consumed for dissolving 100 mg", "setting": "[3]; Tertiary butyl alcohol", "result": 0.5, "unit": "mL"},
      {"measurement": "quantity of solvent consumed for dissolving 100 mg", "setting": "[3]; Water", "result": 2.45, "unit": "mL"},
      {"measurement": "% Moisture content", "setting": "[4]; Initial", "result": 6.87, "unit": "%"},
      {"measurement": "Observation for Description", "setting": "[4]; Initial", "result": "Powder"},
      {"measurement": "% Moisture content", "setting": "[4]; [5]", "result": 2.94, "unit": "%"},
      {"measurement": "Observation for Description", "setting": "[4]; [5]", "result": "Liquid"},
      {"measurement": "% Moisture content", "setting": "[4]; [6]", "result": 4.52, "unit": "%"},
      {"measurement": "Observation for Description", "setting": "[4]; [6]", "result": "Sticky"},
      {"measurement": "% Moisture content", "setting": "[4]; [7]", "result": 6.29, "unit": "%"},
      {"measurement": "Observation for Description", "setting": "[4]; [7]", "result": "Powder"},
      {"measurement": "% Moisture content", "setting": "[4]; [8]", "result": 6.27, "unit": "%"},
      {"measurement": "Observation for Description", "setting": "[4]; [8]", "result": "Powder"},
      {"measurement": "% Moisture content", "setting": "[4]; [9]", "result": 6.23, "unit": "%"},
      {"measurement": "Observation for Description", "setting": "[4]; [9]", "result": "Powder"},
      {"measurement": "Description", "setting": "[4]; −10 °C, 350 mtorr and 6 hours", "result": "Powder"},
      {"measurement": "Moisture Content (%)", "setting": "[4]; −10 °C, 350 mtorr and 6 hours", "result": 7.56, "unit": "%"},
      {"measurement": "Description", "setting": "[4]; −15 °C, 350 mtorr and 12 hours", "result": "Powder"},
      {"measurement": "Moisture Content (%)", "setting": "[4]; −15 °C, 350 mtorr and 12 hours", "result": 6.99, "unit": "%"},
      {"measurement": "Description", "setting": "[4]; −25 °C, 150 mtorr and 6 hours", "result": "Powder"},
      {"measurement": "Moisture Content (%)", "setting": "[4]; −25 °C, 150 mtorr and 6 hours", "result": 6.87, "unit": "%"},
      {"measurement": "Description", "setting": "[4]; −25 °C, 150 mtorr and 15 hours", "result": "Sticky Mass"},
      {"measurement": "Moisture Content (%)", "setting": "[4]; −25 °C, 150 mtorr and 15 hours", "result": 4.55, "unit": "%"},
      {"measurement": "Description", "setting": "[4]; −25 °C, 280 mtorr and 12 hours", "result": "Powder"},
      {"measurement": "Moisture Content (%)", "setting": "[4]; −25 °C, 280 mtorr and 12 hours", "result": 6.51, "unit": "%"}
    ]}
  ]
}
